Legend:
[1] = Toxicity and body weight of treated mice; format: in vivo; details: one dose/week for 3 weeks
Method: (§1) Nude tumor bearing mice were administered by intravenous injection a single dose of 6, 8, 10, or 12 mg/kg of free DOX (one dose/week for 3 weeks). The mice were sacrificed two weeks after the last administration and the tumors were harvested for analysis. Tumor size was measured and compared to the size of tumors harvested from mice administered a saline control.
(§2) Also, in this experiment, instead of being sacrificed two weeks after the last administration, the tumor volumes of the mice were measured one week after the last administration and then measured again four weeks later.

Hep3B cells = experiment: Clonogenic survival of Hep3B cells; format: cell-based, human
Method: (§3) We compared the anticancer activity of G5-L(x)-DOX conjugates to free DOX as a function of concentration by measuring their effect on clonogenic survival of HepG2 and Hep3B hepatic cancer cells. Briefly, HepG2 and Hep3B cells were seeded at a density of 2.5×10^5 cells/T-25 flask and allowed to adhere overnight before incubating with different concentrations (1 nM-100 μM equivalent concentration of DOX) of free DOX or G5-L(x)-DOX conjugates dissolved in OPTI-MEM solution. […] After 72 hours HepG2 and Hep3B cells were washed with cold PBS, trypsinized using a 0.25% trypsin-EDTA solution and centrifuged at 1,000 rpm for 5 minutes. Cell pellets were suspended in fresh culture medium, counted, and plated in 6-well plates at a seeding density of 500-10,000 cells/well and allowed to grow undisturbed for 14 days under normal culture conditions. The formed colonies were gently washed with cold PBS, treated with 1 mL methanol/glacial acetic acid (75/25) and 0.04% w/v trypan blue for 5 minutes and counted. Plating efficiency (PE) for each cell line was calculated by dividing the number of colonies by the cell seeding density for cells incubated with fresh culture medium (negative control). […] All samples were prepared in triplicate for each seeding density and treatment condition, and results expressed as the average % SF±SEM. […]

HepG2 cells = experiment: Clonogenic survival of HepG2 cells; format: cell-based, human; details: 72 hour incubation, equivalent DOX concentration
Method: as §3

rat cardiomyocytes = experiment: LDH leakage cell viability assay in rat cardiomyocytes; format: cell-based; details: 100 μM eq. DOX, 8 hour incubation, versus blank medium
Method: Toxicity of G5-L4-DOX conjugates and free DOX in rat cardiomyocytes was evaluated using the lactate dehydrogenase (LDH) leakage cell viability assay. Briefly, each well was counted for total number of cardiomyocytes before an 8 hour treatment with free DOX or G5-L4-DOX (100 μM eq. DOX) conjugates dissolved in 0.5 mL HBSS. The amount of LDH released to the medium was assayed by mixing […] of the treatment solution in a 96-well plate with the enzyme substrate (1:1) included in the assay kit following the manufacturer's guidelines. […] Amount of LDH leakage for treatment solution and controls were normalized to the number of seeded cells, and all values compared to the positive control (set as 100% LDH leakage reference) to obtain the percentage of LDH leakage as a function of treatment.

[2] = system: tumors of nude tumor bearing mice; experiment: Tumor growth in nude tumor bearing mice after intravenous dosing; format: in vivo; details: one dose/week for 3 weeks
Method: as §1
The above experiment was repeated with an 8 mg/kg dose of free DOX and two additional test groups of mice: one group of mice were administered a dendrimer conjugate comprising a G5 dendrimer conjugated to DOX (G5-OXY-DOX) comprising an azo linkage comprising the structure of
as §2

Compound: COc1cccc2c1C(=O)c1c(O)c3c(c(O)c1C2=O)C[C@@](O)(C(=O)CO)C[C@@H]3O[C@H]1C[C@H](N)[C@H](O)[C@H](C)O1.Cl (relative stereo) [Free DOX, 5,12-Naphthacenedione, 10-[(3-amino-2,3,6-trideoxy-α-L-lyxo-hexopyranosyl)oxy]-7,8,9,10-tetrahydro-6,8,11-trihydroxy-8-(hydroxylacetyl)-1-methoxy-, hydrochloride (8S-cis)]
- toxicity to mice ([1]; 10 mg/kg i.v.): slight increase in toxicity
- toxicity to mice ([1]; 12 mg/kg i.v.): too toxic to mice
- fold reduction in IC50 in Hep3B compared to HepG2 cells (Hep3B cells; 72 hours): 5 fold
- IC50 (Hep3B cells; clonogenic survival, 72 hour incubation, equivalent DOX concentration): 2 nM
- IC50 (HepG2 cells): 10 nM
- LDH leakage / cardiac toxicity (rat cardiomyocytes): nearly double the % of LDH leakage
- LDH leakage / cardiac toxicity (rat cardiomyocytes; listed as free DOX): toxic
- reduction in tumor size versus saline control ([2]; 6 mg/kg i.v.): did not cause any substantial reduction in tumor size
- tumor growth versus control mice ([2]; 8 and 10 mg/kg i.v.): inhibited tumor growth

From US9345781B2, “Targeted dendrimer-drug conjugates” (priority 2009, dated 2016)
